Experimental findings from patent US20250339426A1, “GCN2 MODULATOR FOR TREATING CANCER” (HIBERCELL, INC., priority 2022, published 2025) are described below.

Assay [1] concerns NCI-H1975 (human non-small cell lung cancer cells). The assay is described as follows: In vivo tumor growth inhibition, NCI-H1975 xenograft. More on the design: species or system Athymic Nude-Foxn1nu mice. The following applies: HC-7366 3 mg/kg twice daily oral. As for the experimental part: NCI-H1975 (human non-small cell lung cancer cells): Female 7-8 weeks old Athymic Nude-Foxn1nu mice were inoculated subcutaneously on the right flank with NCI-H1975 tumor cells (2.5×10^6) in 0.1 ml of RPMI1640 medium without serum for tumor development. Single agent HC-7366 was dosed at 3 mg/kg, osimertinib at 2.5 mg/kg and dacomitinib at 15 mg/kg. HC-7366 was combined with either osimertinib or dacomitinib. The vehicle for the groups was 0.5% methyl cellulose. The treatments were started when the mean tumor size reached approximately 205 mm^3 at Day 22 post inoculation and continued until end of study. HC-7366 was given twice daily by oral gavage whereas osimertinib or dacomitinib were administered once a day by oral gavage (FIGS. 131 and 133).
(§1) [formula] • 2.2.2 Tumor Measurements: The measurement of tumor size was conducted three times weekly with a caliper and recorded. The tumor volume (mm^3) was estimated using the formula: TV=a×b^2/2, where “a” and “b” is long and short diameters of a tumor, respectively. Tumor volume was calculated using the formula [tumor volume (mm^3)=π/6×length×width^2).
(§2) Regression was calculated using the formula=100×ΔT/T initial, if ΔT<0. Animals with 0 mm^3 tumor volume (no measurable tumor) for three consecutive measurements were considered as complete responders and animals with 50% tumor regressions were partial responders.

Assay [2] relates to newly synthesized proteins. The assay is described as follows: Puromycin labeling of newly synthesized proteins. The conditions noted are these: 100 nM. Format: cell-based.
Assay [3] concerns DLD-1 (human colorectal cancer cells). The assay is described as follows: In vivo tumor growth inhibition, DLD-1 xenograft. More on the design: species or system BALB/c nude mice. The following applies: for TGI %: combination studies (Examples 9, 11). As to the method:
DLD-1 (human colorectal cancer cells): Female 6-8 weeks old BALB/c nude mice were inoculated subcutaneously on the right flank with DLD-1 tumor cells (5×10^6) in 0.1 ml of RPMI1640 medium without serum for tumor development. The treatments were started when the mean tumor size reached approximately 195 mm^3 at Day 7 post inoculation and continued until end of study by twice daily oral gavage dosing of HC-7366 at listed doses (vehicle, 0.3 mg/kg HC-7366, 1 mg/kg HC-7366, 3 mg/kg HC-7366, 10 mg/kg HC-7366, or 30 mg/kg HC-7366, FIG. 10). For the time course study, tumors were harvested at Days 4, 7 and 14. Tumors were then used for IHC and RNAseq experiments (see Example 21).
as §1, §2
The effect of DC101 in combination with HC-7366 in DLD-1 tumor-bearing mice was evaluated using protocols analogous to those described in Example 6. Mice were treated with 3 or 30 mg/kg HC-7366, twice daily by oral gavage. DC101 was administered at 20 mg/kg twice weekly and with twice daily dosing via intraperitoneal injection.
The effect of 5-fluorouracil in combination with HC-7366 in DLD-1 tumor-bearing mice was evaluated using protocols analogous to those described in Example 6. Mice were treated with 3 or 30 mg/kg HC-7366, twice daily by oral gavage. 5-fluorouracil was administered at 75 mg/kg once a week, twice daily via intravenous injection.

Assay [4] relates to OCI-AML2 (human AML cancer cells). The assay is described as follows: In vivo tumor growth inhibition, OCI-AML2 xenograft. More on the design: species or system NOD SCID mice. As for the experimental part: OCI-AML2 (human AML cancer cells): Female 6-8 weeks old NOD SCID mice were inoculated subcutaneously on the right flank with OCI-AML2 tumor cells (5×10^6) in RPMI 1640 without serum for tumor development. The treatments were started when the mean tumor size reached approximately 149 mm^3 at Day 7 after cell inoculation and continued until end of study by twice daily oral gavage dosing of HC-7366 at listed doses (vehicle, 0.3 mg/kg HC-7366, 1 mg/kg HC-7366, 3 mg/kg HC-7366, 10 mg/kg HC-7366, or 30 mg/kg HC-7366, FIG. 19).
as §1, §2

Assay [5] deals with ASNS, PHGDH, PUMA, PSAT1, S100A8/A9 in MV4-11 tumors. The experiment in a line: Tumor IHC, MV4-11 tumors (venetoclax combination study). The class given is in vivo, BALB/c nude mice. The following applies: end-of-study tumors. As to the method: Immunohistochemical analysis was carried out on tumors that were collected at the end of the study described in Example 6. Formalin-fixed paraffin-embedded samples were sectioned at 5 μm thickness and mounted on Superfrost Plus microscope slides (Fisher Scientific). All immunohistochemical (IHC) staining was performed on Bond Rx auto-stainer (Leica Biosystems) using the conventional TSA-amplified detection system. Primary antibodies used were as follows: a-ASNS (Cell Signaling Technology #92479), a-PUMA (Cell Signaling Technology #98672), a-PSAT1 (Proteintech #10501-1-AP), a-PHGDH (Proteintech #14719-1-AP), HIF-1a-Novus Biologicals NB 100-479, HIF-2a-Novus Biologicals NB100-122SS, and GLUT-1-EMB Biosciences 07-1401. TSA-conjugated Alexa488, Alexa 568 and Alexa647 fluorophores from Invitrogen (#B40953, #B40956, and #B40958) were used at 1:500 dilution. Slides were counterstained with DAPI and cover slipped using Mowiol anti-fade mounting media (Sigma #D2522).
Slides were imaged with Aperio Versa 200 (Leica Biosystems) whole-slide scanner using 10×/0.32NA objective, and the data were analyzed using custom-written macros in ImageJ/FIJI (NIH). Briefly, 150 μm of outer edges of the tumor sections and necrotic regions (determined by lack of 4′,6-diamidino-2-phenylindole (DAPI) signal or presence of condensed DNA) were eliminated from the analysis. Gaussian-blurred DAPI channel was used to measure the area of the tumor tissue. Scans of immune-staining were processed to remove background, then total intensity value above appropriate threshold levels was measured and normalized to tissue area. All graphing and statistics (one-way ANOVA and pair-wise comparisons) were performed using Prism GraphPad.
Slides were deparaffinized, rehydrated and heat mediated antigen retrieval was conducted with AR6 buffer (Akoya). Slides were blocked with Roche diagnostics antibody diluent (Fisher) and stained with primary antibodies for 1 hr at 110 rpm. After washing, horseradish peroxidase (HRP)-conjugated secondary antibodies were added for 10 mins at 110 rpm. After washing, OPAL detection dye (Akoya) was added for a static 10 min incubation. Antigen retrieval was performed post OPAL staining, followed by DAPI staining and slide covering. Multispectral images were captured on the Polaris imaging system (Akoya) and spectral unmixing, cell segmentation and phenotyping was performed using Inform Tissue Finder software (Akoya). Imaging data was converted into .csv files and imported into Flowjo for analysis of S100A8/A9 percent positive cells. Primary antibodies used were rabbit anti-human/mouse S100A8/A9 (Clone RM1038, Abcam ab288715, paired with Opal 570).
Immunohistochemical analysis was performed on the tumors according to the procedures described in Example 7.

Setting [6] is: HC-7366 3 mg/kg, alone or with venetoclax.

`CNC(=O)c1ncn2cc(-c3c(F)ccc(NS(=O)(=O)c4cc(Cl)cnc4OC)c3F)ncc12` [HC-7366, 6-(3-((5-chloro-2-methoxypyridine)-3-sulfonamido)-2,6-difluorophenyl)-N-methylimidazo[1,5-a]pyrazine-1-carboxamide]: the TGI in assay [1] was 59%; in assay [4] (10 mg/kg twice daily oral), “about 47%”; in assay [4] (30 mg/kg twice daily oral) it was about 51%. In assay [2], the “puromycin labeling of newly synthesized proteins” value was “potently reduced”. Also, the tumor growth inhibition in assay [3] (1 mg/kg and 3 mg/kg twice daily oral) is about 78%. In addition, the TGI % in assay [3] (HC-7366 3 mg/kg twice daily oral) is reported as about 65%; in assay [3] (HC-7366 30 mg/kg twice daily oral), about 21%. Moreover, the PSAT1 levels result in assay [5] is on record as “did not change”. Also, the “ASNS by IHC” value in assay [5] (setting [6]) was “potent activation”. For the same compound, the “PHGDH by IHC” value in assay [5] (setting [6]) is given as “potent activation”. Moreover, in assay [5] (setting [6]), the “PUMA by IHC” value is “potent activation”. Further, the S100A8/A9 levels entry in assay [5] (single agents and combination) is on record as “significantly reduced”.
